Source: ChEMBL document CHEMBL4190297, “Cafestol, a Bioactive Substance in Coffee, Has Antidiabetic Properties in KKAy Mice” (J Nat Prod, 2017)
Active and inactive are the calls of the source. No cut-off for these calls is given here.

How the values were obtained:
Mus musculus [1] = organism: Mus musculus; assay: Effect on FAS mRNA expression levels in liver of KK-Ay diabetic mouse model at 0.4 to 1.1 mg added daily to normal chow pellets for 10 weeks by qRT-PCR analysis; assay type: functional, organism-based
Mus musculus [2] = organism: Mus musculus; assay: Effect on Lipc mRNA expression levels in muscle of KK-Ay diabetic mouse model at 0.4 to 1.1 mg added daily to normal chow pellets for 10 weeks by qRT-PCR analysis; assay type: functional, organism-based
Mus musculus [3] = organism: Mus musculus; assay: Effect on Mtor mRNA expression levels in muscle of KK-Ay diabetic mouse model at 0.4 to 1.1 mg added daily to normal chow pellets for 10 weeks by qRT-PCR analysis; assay type: functional, organism-based
Mus musculus [4] = organism: Mus musculus; assay: Antidiabetic activity in KK-Ay diabetic mouse model assessed as effect on total cholesterol level at 0.14 to 1.1 mg added daily to normal chow pellets for 10 weeks by colorimetric analysis; assay type: functional, organism-based
Mus musculus [5] = organism: Mus musculus; assay: Antidiabetic activity in KK-Ay diabetic mouse model assessed as decrease in plasma triglycerides level at 0.14 to 1.1 mg added daily to normal chow pellets for 10 weeks by colorimetric analysis; assay type: functional, organism-based
Mus musculus [6] = organism: Mus musculus; assay: Antidiabetic activity in KK-Ay diabetic mouse model assessed as increase in HDL levels at 0.4 to 1.1 mg added daily to normal chow pellets for 10 weeks by colorimetric analysis; assay type: functional, organism-based
Mus musculus [7] = organism: Mus musculus; assay: Toxicity in KK-Ay diabetic mouse model assessed as effect on average 24 hrs food consumption by measured food consumption at 1.1 mg added daily to normal chow pellets for 10 weeks (reference value: 4.7 +/- 0.2 g); assay type: organism-based; conditions: in vivo, po
Mus musculus [8] = organism: Mus musculus; assay: Antidiabetic activity in KK-Ay diabetic mouse model assessed as reduction in plasma glucagon levels at 1.1 mg added daily to normal chow pellets for 10 weeks relative to control by radioimmunoassay; assay type: functional; parameters: scale not given: the % may be the effect or the level left
Mus musculus [9] = organism: Mus musculus; assay: Induction of […] glucose-stimulated insulin secretion in pancreatic islets isolated from KK-Ay diabetic mouse model at 0.4 mg added daily to normal chow pellets for 10 weeks followed by glucose stimulation of isolated pancreatic islets for 1 hr by radioimmunoassay relative to control; assay type: functional
Mus musculus [10] = organism: Mus musculus; assay: Effect on PKCdelta mRNA expression levels in adipose tissue of KK-Ay diabetic mouse model at 0.4 to 1.1 mg added daily to normal chow pellets for 10 weeks by qRT-PCR analysis; assay type: functional, organism-based
Mus musculus [11] = organism: Mus musculus; assay: Effect on Adipor1 mRNA expression levels in muscle of KK-Ay diabetic mouse model at 0.4 to 1.1 mg added daily to normal chow pellets for 10 weeks by qRT-PCR analysis; assay type: functional, organism-based
Mus musculus [12] = organism: Mus musculus; assay: Effect on triglyceride concentration in liver of KK-Ay diabetic mouse model at 0.4 to 1.1 mg added daily to normal chow pellets for 10 weeks; assay type: functional, organism-based
Mus musculus [13] = organism: Mus musculus; assay: Effect on GYS2 mRNA expression levels in adipose tissue of KK-Ay diabetic mouse model at 0.4 to 1.1 mg added daily to normal chow pellets for 10 weeks by qRT-PCR analysis; assay type: functional, organism-based
Mus musculus [14] = organism: Mus musculus; assay: Antidiabetic activity in KK-Ay diabetic mouse model assessed as increase in insulin levels in plasma at 1.1 mg added daily to normal chow pellets for 10 weeks by radioimmunoassay; assay type: functional, organism-based
Mus musculus [15] = organism: Mus musculus; assay: Effect on GYS2 mRNA expression levels in muscle of KK-Ay diabetic mouse model at 0.4 to 1.1 mg added daily to normal chow pellets for 10 weeks by qRT-PCR analysis; assay type: functional, organism-based
Mus musculus [16] = organism: Mus musculus; assay: Antidiabetic activity in KK-Ay diabetic mouse model assessed as reduction in HOMA-IR levels at 0.4 mg added daily to normal chow pellets for 10 weeks; assay type: functional, organism-based
Mus musculus [17] = organism: Mus musculus; assay: Induction of 3.3 mM glucose-stimulated insulin secretion in pancreatic islets isolated from KK-Ay diabetic mouse model at 1.1 mg added daily to normal chow pellets for 10 weeks followed by glucose stimulation of isolated pancreatic islets for 1 hr by radioimmunoassay relative to control; assay type: functional
Mus musculus [18] = organism: Mus musculus; assay: Effect on Acaca mRNA expression levels in adipose tissue of KK-Ay diabetic mouse model at 0.4 to 1.1 mg added daily to normal chow pellets for 10 weeks by qRT-PCR analysis; assay type: functional, organism-based
Mus musculus [19] = organism: Mus musculus; assay: Effect on Lipc mRNA expression levels in liver of KK-Ay diabetic mouse model at 0.4 to 1.1 mg added daily to normal chow pellets for 10 weeks by qRT-PCR analysis; assay type: functional, organism-based
Mus musculus [20] = organism: Mus musculus; assay: Toxicity in KK-Ay diabetic mouse model assessed as increase in body weight at 1.1 mg added daily to normal chow pellets for 8 weeks; assay type: organism-based; conditions: in vivo, po, 1344 h
Mus musculus [21] = organism: Mus musculus; assay: Effect on PPARalpha mRNA expression levels in adipose tissue of KK-Ay diabetic mouse model at 0.4 to 1.1 mg added daily to normal chow pellets for 10 weeks by qRT-PCR analysis; assay type: functional, organism-based
Mus musculus [22] = organism: Mus musculus; assay: Effect on Sirt1 mRNA expression levels in liver of KK-Ay diabetic mouse model at 0.4 to 1.1 mg added daily to normal chow pellets for 10 weeks by qRT-PCR analysis; assay type: functional, organism-based
Mus musculus [23] = organism: Mus musculus; assay: Effect on Sirt1 mRNA expression levels in muscle of KK-Ay diabetic mouse model at 0.4 to 1.1 mg added daily to normal chow pellets for 10 weeks by qRT-PCR analysis; assay type: functional, organism-based
Mus musculus [24] = organism: Mus musculus; assay: Antidiabetic activity in KK-Ay diabetic mouse model assessed as increase in INSR mRNA expression levels in liver tissue at 1.1 mg added daily to normal chow pellets for 10 weeks by qRT-PCR analysis; assay type: functional, organism-based
Mus musculus [25] = organism: Mus musculus; assay: Effect on Pi3K mRNA expression levels in muscle of KK-Ay diabetic mouse model at 0.4 to 1.1 mg added daily to normal chow pellets for 10 weeks by qRT-PCR analysis; assay type: functional, organism-based
Mus musculus [26] = organism: Mus musculus; assay: Effect on Pi3K mRNA expression levels in liver of KK-Ay diabetic mouse model at 0.4 to 1.1 mg added daily to normal chow pellets for 10 weeks by qRT-PCR analysis; assay type: functional, organism-based
Mus musculus [27] = organism: Mus musculus; assay: Effect on 18s rRNA expression levels in muscle of KK-Ay diabetic mouse model at 0.4 to 1.1 mg added daily to normal chow pellets for 10 weeks by qRT-PCR analysis; assay type: functional, organism-based
Mus musculus [28] = organism: Mus musculus; assay: Antidiabetic activity in KK-Ay diabetic mouse model assessed as mean fasting blood glucose level at 1.1 mg added daily to normal chow pellets for 10 weeks (reference value: 18 +/- 1.2 mmol/L); assay type: functional
Mus musculus [29] = organism: Mus musculus; assay: Effect on PPARGC1alpha mRNA expression levels in muscle of KK-Ay diabetic mouse model at 0.4 to 1.1 mg added daily to normal chow pellets for 10 weeks by qRT-PCR analysis; assay type: functional, organism-based
Mus musculus [30] = organism: Mus musculus; assay: Effect on Pi3K mRNA expression levels in adipose tissue of KK-Ay diabetic mouse model at 0.4 to 1.1 mg added daily to normal chow pellets for 10 weeks by qRT-PCR analysis; assay type: functional, organism-based
Mus musculus [31] = organism: Mus musculus; assay: Effect on Mtor mRNA expression levels in adipose tissue of KK-Ay diabetic mouse model at 0.4 to 1.1 mg added daily to normal chow pellets for 10 weeks by qRT-PCR analysis; assay type: functional, organism-based
Mus musculus [32] = organism: Mus musculus; assay: Effect on LXRalpha mRNA expression levels in muscle of KK-Ay diabetic mouse model at 0.4 to 1.1 mg added daily to normal chow pellets for 10 weeks by qRT-PCR analysis; assay type: functional, organism-based
Mus musculus [33] = organism: Mus musculus; assay: Effect on FAS mRNA expression levels in adipose tissue of KK-Ay diabetic mouse model at 0.4 to 1.1 mg added daily to normal chow pellets for 10 weeks by qRT-PCR analysis; assay type: functional, organism-based

## C[C@@]12CCc3occc3[C@H]1CC[C@@]13C[C@H](CC[C@H]12)[C@@](O)(CO)C3
Mus musculus [1]
  Activity: inactive
Mus musculus [2]
  Activity: inactive
Mus musculus [3]
  Activity: inactive
Mus musculus [4]
  Activity: inactive
Mus musculus [5]
  Activity: inactive
Mus musculus [6]
  Activity: inactive
Mus musculus [7]
  Activity: 5.9 g
Mus musculus [8]
  Activity: 20%
Mus musculus [9]
  Activity: 87%
Mus musculus [10]
  Activity: inactive
Mus musculus [11]
  Activity: inactive
Mus musculus [12]
  Activity: inactive
Mus musculus [13]
  Activity: inactive
Mus musculus [14]
  Activity: inactive
Mus musculus [15]
  Activity: inactive
Mus musculus [16]
  Activity: inactive
Mus musculus [17]
  Activity: 44%
Mus musculus [18]
  Activity: inactive
Mus musculus [19]
  Activity: inactive
Mus musculus [20]
  Activity: > 3 g
Mus musculus [21]
  Activity: inactive
Mus musculus [22]
  Activity: inactive
Mus musculus [23]
  Activity: inactive
Mus musculus [24]
  Activity: Active
Mus musculus [25]
  Activity: inactive
Mus musculus [26]
  Activity: inactive
Mus musculus [27]
  Activity: inactive
Mus musculus [28]
  Activity: 12.9 mmol/L
Mus musculus [29]
  Activity: inactive
Mus musculus [30]
  Activity: inactive
Mus musculus [31]
  Activity: inactive
Mus musculus [32]
  Activity: inactive
Mus musculus [33]
  Activity: inactive
